Reference: PMC2765639 (PLoS Neglected Tropical Diseases, 2009)
Read-outs that look alike come from different tables or passages of the source.

How the values were obtained:
L. major promastigotes = assay: L. major promastigote drug susceptibility assay (alamar blue, 384-well); assay type: cell-based, Leishmania major; settings: for primary hit (≥50% inhibition of signal readout): single concentration 10 µM, LOPAC, UP-CMLD DP validation set or PMLSC library
Experimental: Promastigotes were grown in vented T75 tissue culture flasks and maintained at 28°C. Promastigote cultures were initiated at 10^5 parasites per mL and subcultured every 3–4 days. L. major promastigote counts were performed in duplicate using a hemocytometer and particle counter (Beckman Coulter, Fullerton, CA). For HTS assays, L. major promastigote cultures were harvested during exponential growth phase (∼2.0–3.0×10^7 parasites/mL) and were not maintained past passage 20.
The final test compound concentration was 10 µM with a constant DMSO concentration of 1% in each assay well.
The L. major promastigote drug susceptibility assay was performed in a final volume of 25 µL using our previously described 384-well microtiter plate format,[39]. For automated HTS procedures, L. major promastigotes (5,000 parasites/22 µL) in complete growth medium were seeded into each well of the microtiter plates using a MAPC2 bulk dispenser (Titertek, Huntsville, AL). Test and control compounds (3 µL) were added to individual wells using a Velocity 11 V-prep (Menlo Park, CA) liquid handling system, equipped with a 384-well dispensing head, followed by centrifugation at 50 g for 1 min. […] Assay plates were allowed to incubate for 44 h at 28°C in the presence of 5% CO2. Five µL of alamar blue reagent were added to each assay plate well and incubated for 4 h at 28°C with 5% CO2. Data were captured on a Molecular Devices SpectraMax M5 (excitation560; emission590). Individual assay plate Z-factors were derived from the vehicle and positive controls, and data from plates were used only if Z-factors were >0.5 [50].
The assays were performed in duplicate with a final 10-point concentration range spanning 0.01–5.00 µM.

A549 = assay: Mammalian cell line specificity assay (alamar blue); assay type: cell-based, human; settings: Table S1; PMLSC library samples; read-out: EC50 Ave ± SD, A549
Experimental: Mammalian cells were cultured and maintained according to ATCC specifications (ATCC, Manassas, VA). Cell line drug susceptibility assays were performed in final volumes of 25 µL using our previously described 384-well microtiter plate format,[39]. […] Test and control compounds were added to individual wells as described above. Vehicle and positive controls were 1% DMSO and 10% DMSO, respectively (final well concentrations). Assay plates were incubated for 44–46 h at 37°C in the presence of 5% CO2 and growth inhibitory effects were determined as described above. Five µL of alamar blue reagent was added to each well and incubated for 2–4 h. Data were captured as described above.

[1] = Table S1, PMLSC library samples, 10-point 0.01–5.00 µM, read-out: EC50 Ave ± SD, Lm
[2] = Leishmania major, assay optimization, 384-well format, read-out: EC50, L. major promastigotes, known leishmanicidals

Compound | EC50 (L. major promastigotes; [1]) [nM] | EC50 (A549) [nM] | EC50 (L. major promastigotes; [2]) [nM] | primary hit (≥50% inhibition of signal readout) (L. major promastigotes) | EC50 (L. major promastigotes; assay optimization, 384-well format, read-out: EC50, L. major promastigotes, known leishmanicidals) [nM]
O=c1c(Cl)nc2cc(Cl)ccc2n1CCNc1ncc(C(F)(F)F)cc1Cl [CID 1471937] | 513 ± 52 | 4310 ± 540 | – | – | –
N=C(N)c1ccc(OCCCCCOc2ccc(C(=N)N)cc2)cc1 [pentamidine, reference compound] | – | – | 360 ± 20 | – | –
O=C1C2CCN(CC2)C1Cc1ccc(OCCOc2ccccc2)cc1 (centres unmarked) [CID 6603672] | 274 ± 51 | > 5000 | – | – | –
N#CC(c1ccc(Cl)cc1)c1ccc2c(C(F)(F)F)cc(C(F)(F)F)nc2n1 (centres unmarked) [CID 3564202] | 565 ± 35 | 2110 ± 77 | – | – | –
O=C(COc1ccccc1F)NC1CCN(Cc2ccccc2)CC1 [CID 11834429] | 142 ± 32 | > 5000 | – | – | –
O=[N+]([O-])c1cc(-c2nnc(C34CC5CC(CC(C5)C3)C4)o2)cc([N+](=O)[O-])c1 [CID 380438] | 117 ± 22 | > 5000 | – | – | –
CN(C)C(=S)SSC(=S)N(C)C [CID 5455] | 98 ± 12 | 750 ± 2 | – | – | –
Cc1nc2c(=O)n(C)c(=O)nc-2n(C)n1 [CID 460747] | 202 ± 11 | 158 ± 18 | – | – | –
O=C(c1ccc(-c2ccccc2)c(F)c1)C1CCCN(CCO)C1 (centres unmarked) [CID 16187738] | 511 ± 44 | > 5000 | – | – | –
NCC12CC3CC(C1)CC(c1ccc(Cl)cc1)(C3)C2 [CID 16192591] | 357 ± 56 | 3750 ± 623 | – | – | –
CC(C)CCN(C)C1CCN(S(=O)(=O)c2cccc(C(F)(F)F)c2)CC1 [CID 6602880] | 10 ± 3 | > 5000 | – | – | –
CC12CCC(C(=O)N(CCCN3CCN(Cc4ccccc4)CC3)C1=O)C2(C)C (centres unmarked) [CID 16189740] | 571 ± 113 | > 5000 | – | – | –
Clc1ccccc1C(c1ccccc1)(c1ccccc1)n1ccnc1 [Clotrimazole, reference compound] | – | – | – | primary hits | –
O=C(O)[C@@H]1[O][Sb](=[O])([O][Sb]2(=[O])[O][C@H]([C@H](O)CO)[C@H](O)[C@H](C(=O)O)[O]2)[O][C@H]([C@H](O)CO)[C@@H]1O.[Na+].[Na+].[Na+] (some centres unmarked) [sodium stibogluconate, reference compound] | – | – | – | – | > 100000
[O-][N+]1=c2ccc(Nc3ccccc3)cc2=NC12CCCCC2 [CID 657546] | 845 ± 136 | > 5000 | – | – | –
COc1c(C)c2c(c(O)c1C/C=C(\C)CCC(=O)O)C(=O)OC2 [mycophenolic acid, reference compound] | – | – | – | primary hits | –
NC[C@@H]1O[C@H](O[C@H]2[C@@H](O)[C@H](O[C@@H]3[C@@H](O)[C@H](N)C[C@H](N)[C@H]3O[C@H]3O[C@H](CO)[C@@H](O)[C@H](O)[C@H]3N)O[C@@H]2CO)[C@H](N)[C@@H](O)[C@@H]1O [paromomycin, reference compound] | – | – | 19700 ± 600 | – | –
COCCCN1CCN(c2nnc3n2-c2sc(Br)cc2C(c2ccccc2Cl)=NC3)CC1 [CID 11948854] | 607 ± 166 | > 5000 | – | – | –
O=C(Nc1ccc([N+](=O)[O-])cc1Cl)c1cc(Cl)ccc1O [niclosamide, reference compound] | – | – | – | primary hits | –
COC(=O)C1CN(C#N)N(c2ccc(Cl)cc2)C12c1ccccc1-c1ccccc12 (centres unmarked) [CID 3609942] | 73 ± 13 | 2750 ± 73 | – | – | –
CCCOC(=O)CSC1=C(C#N)C(c2ccccc2Cl)CC(=O)N1 (centres unmarked) [CID 2855568] | 122 ± 12 | > 5000 | – | – | –
O=C(NCC(c1cccnc1)N1CCN(c2ccc(F)cc2)CC1)Oc1ccccc1 (centres unmarked) [CID 3242548] | 111 ± 10 | > 5000 | – | – | –
C[C@H]1C[C@@H](C)C(=O)[C@@H]([C@H](O)CC2CC(=O)NC(=O)C2)C1 [CID 6604199] | 5 ± 0.1 | 1900 ± 1400 | – | – | –
CCCc1nc2c(=O)n(C)c(=O)nc-2n(C)n1 [CID 3164059] | 218 ± 54 | 1060 ± 156 | – | – | –
O=[N+]([O-])c1ccc(NNC(=S)Nc2ccc(F)cc2)cc1 [CID 3127155] | 452 ± 74 | > 5000 | – | – | –
CC(=O)N1CCN(c2ccc(OCC3COC(Cn4ccnc4)(c4ccc(Cl)cc4Cl)O3)cc2)CC1 (centres unmarked) [ketoconazole, reference compound] | – | – | – | primary hits | –
COc1ccc2cc3[n+](cc2c1OC)CCc1cc2c(cc1-3)OCO2 [berberine, reference compound] | – | – | – | primary hits | –
CCN(CC)CCCC(C)Nc1c2ccc(Cl)cc2nc2ccc(OC)cc12 (centres unmarked) [quinacrine, reference compound] | – | – | – | primary hits | –
ivermectin [reference compound] | – | – | – | primary hits | –
CC/C(=C(\c1ccccc1)c1ccc(OCCN(C)C)cc1)c1ccccc1 [tamoxifen, reference compound] | – | – | – | primary hits | –

Further lines, with some results ahead:

EC50 (L. major promastigotes; [1]) [nM] | EC50 (A549) [nM] | Compound | EC50 (L. major promastigotes; [2]) [nM] | primary hit (≥50% inhibition of signal readout) (L. major promastigotes) | EC50 (L. major promastigotes; assay optimization, 384-well format, read-out: EC50, L. major promastigotes, known leishmanicidals) [nM]
751 ± 110 | > 5000 | CCc1ccc(NSc2ccccc2[N+](=O)[O-])cc1 [CID 2856077] | – | – | –
255 ± 21 | > 5000 | COc1ccc2c3c(cccc13)NN=C2C [CID 644992] | – | – | –
849 ± 99 | > 5000 | Nc1nn(-c2ccccc2)c(N)c1N=Nc1ccc2c(c1)OCO2 [CID 15944965] | – | – | –
718 ± 86 | > 5000 | O=S(=O)(CCSc1nc2ccccc2s1)c1nc2ccccc2s1 [CID 2194030] | – | – | –
205 ± 21 | 1140 ± 53 | CCCCCCCCC[n+]1cccc2c3ccccc3ccc21 [CID 11957314] | – | – | –
504 ± 66 | > 5000 | CN(C)c1cc(NN=Cc2ccc(Cl)cc2)nc(N(C)C)n1 [CID 3769434] | – | – | –
184 ± 12 | > 5000 | Cc1ccc(-c2cc(-c3ccc(C)cc3)[n+](C)o2)cc1.[O-][Cl+3]([O-])([O-])[O-] [CID 15945780] | – | – | –
784 ± 36 | > 5000 | Cc1cc(C(=O)CCl)c(C)n1Cc1ccco1 [CID 1537038] | – | – | –
382 ± 56 | > 5000 | CC1=C(C(=O)Nc2cc(-c3cccc(F)c3)[nH]n2)C2(CCCCC2)OC1=O [CID 5309827] | – | – | –
723 ± 24 | > 5000 | Cc1nnc(Nc2ccccn2)c2ccccc12 [CID 645317] | – | – | –
505 ± 54 | > 5000 | O=C(c1ccccc1)c1c2c(cc3sc4ccccc4[n+]13)-c1cccc3cccc-2c13 [CID 15944971] | – | – | –
50 ± 0.1 | > 5000 | COC(=O)c1ccc2c(c1)C(C)(C)C(/C=C/c1ccc(OC)c(OC)c1OC)=[N+]2C [CID 9550329] | – | – | –
85 ± 5 | > 5000 | COc1ccccc1-n1cnc2c(c1=O)c1nc3ccccc3nc1n2-c1ccc(C)c(C)c1 [CID 1987332] | – | – | –
326 ± 40 | > 5000 | CCC(C)(c1nnnn1-c1c(C)cccc1C)N(N=O)c1ccccc1Cl (centres unmarked) [CID 3521510] | – | – | –
87 ± 21 | 613 ± 109 | CCOC(=O)c1c2c(n(C)c1C)C(=O)C(=O)c1ccc(Br)cc1-2 [CID 1736381] | – | – | –
104 ± 27 | > 5000 | COC(=O)c1ccc(-c2ccc(CNCC(O)c3ccccc3)o2)cc1 (centres unmarked) [CID 6602747] | – | – | –
60 ± 0.1 | > 5000 | COCCCNCCCCOc1ccc(Br)cc1Cl [CID 2923184] | – | – | –
635 ± 26 | 4700 ± 311 | Nc1cccc2nc3ccccc3cc12 [CID 11352] | – | – | –
301 ± 50 | > 5000 | CC(C)(C)c1ccc(-c2ncccc2O)cc1 [CID 16192568] | – | – | –
545 ± 193 | > 5000 | COC(=O)c1cccc(Cn2c(Cl)c(C=NNc3ccccc3C)sc2=O)c1 [CID 4271960] | – | – | –
255 ± 48 | > 5000 | O=C1CC(c2ccccc2Br)c2cc3c(cc2N1)CCC3 (centres unmarked) [CID 2937831] | – | – | –
178 ± 36 | > 5000 | CCOC(=O)c1c(-c2ccc(F)cc2)csc1NC(=O)CCN1CCOCC1 [CID 15945170] | – | – | –
18 ± 2 | 2320 ± 205 | COc1ccc(-[n+]2c(C)cc(/C=C3\Sc4ccccc4N3C)cc2C)cc1 [CID 16196223] | – | – | –
499 ± 135 | > 5000 | Fc1cccc(-c2nnn3c2nc(Cl)c2ccccc23)c1 [CID 2137463] | – | – | –
788 ± 114 | 151 ± 10 | CCOC(=O)N=Nc1c2ccccc2c2nc3no[nH]c3nc12 [CID 5833488] | – | – | –
743 ± 62 | > 5000 | COC(=O)CNc1nc(-c2ccccc2F)nc2ccccc12 [CID 3237155] | – | – | –
205 ± 21 | 4080 ± 352 | O=C(Nc1ccc(Cl)cn1)c1ccc([N+](=O)[O-])o1 [CID 952234] | – | – | –
105 ± 10 | > 5000 | COC(=O)c1cc2ccsc2n1Cc1nc(-c2ccc(OC)cc2)oc1C [CID 3236501] | – | – | –
767 ± 76 | > 5000 | Cc1ccc2nc(Cl)c3nnnn3c2c1 [CID 4202676] | – | – | –
